# Assays:
# Format in all cases: in vivo
# [1] = system: galium (catchweed bedstraw, Galium aparine); experiment: Test A postemergence, galium; settings: Postemergence, 0 to 100 scale (0 no effect, 100 complete control); for Plant response rating, Galium: 125 g ai/ha; for Galium plant response rating: 500 g ai/ha, visual injury vs untreated controls after approx. 10 days
# How it was run: (§1)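 Postemergence ratings come from foliar sprays onto one- to two-leaf plants of 2 to 10 cm grown in loam/sand; preemergence ratings come from a directed spray onto the soil of newly seeded pots. Formulation was a surfactant-containing non-phytotoxic solvent blend.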
# [2] = system: Foxtail, Giant (giant foxtail, Setaria faberi); experiment: Test A preemergence, Foxtail, Giant; settings: Preemergence; for Foxtail, Giant plant response rating: visual injury on 0 to 100 scale (0 no effect, 100 complete control), approximately 10 days; for Plant response rating, Foxtail, Giant: 0 to 100 scale (0 no effect, 100 complete control)
# How it was run: (§2)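 Seeds are sown in loam mixed with sand and sprayed on the soil surface right after planting for the preemergence test. Postemergence pots are sprayed once seedlings reach 2 to 10 cm at the one- to two-leaf stage. The same surfactant-containing, non-phytotoxic solvent formulation serves both.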
# [3] = system: ragweed (common ragweed, Ambrosia artemisiifolia); experiment: Test A postemergence, ragweed; settings: Postemergence, 0 to 100 scale (0 no effect, 100 complete control); for Plant response rating, Ragweed: 125 g ai/ha; for Ragweed plant response rating: 500 g ai/ha, visual injury vs untreated controls after approx. 10 days
# How it was run: as §2
# [4] = system: barnyardgrass (Echinochloa crus-galli); experiment: Test A postemergence, barnyardgrass; settings: Postemergence, 0 to 100 scale (0 no effect, 100 complete control); for Plant response rating, Barnyardgrass: 125 g ai/ha; for Barnyardgrass plant response rating: 500 g ai/ha, visual injury vs untreated controls after approx. 10 days
# How it was run: as §1
# [5] = system: Foxtail, Giant (giant foxtail, Setaria faberi); experiment: Test A postemergence, Foxtail, Giant; settings: Postemergence, 0 to 100 scale (0 no effect, 100 complete control); for Plant response rating, Foxtail, Giant: 125 g ai/ha; for Foxtail, Giant plant response rating: 500 g ai/ha, visual injury vs untreated controls after approx. 10 days
# How it was run: as §2
# [6] = system: Ryegrass, Italian (Italian ryegrass, Lolium multiflorum); experiment: Test A postemergence, Ryegrass, Italian; settings: Postemergence, 0 to 100 scale (0 no effect, 100 complete control); for Plant response rating, Ryegrass, Italian: 125 g ai/ha; for Ryegrass, Italian plant response rating: 500 g ai/ha, visual injury vs untreated controls after approx. 10 days
# How it was run: as §2
# [7] = system: Ryegrass, Italian (Italian ryegrass, Lolium multiflorum); experiment: Test A preemergence, Ryegrass, Italian; settings: Preemergence; for Ryegrass, Italian plant response rating: visual injury on 0 to 100 scale (0 no effect, 100 complete control), approximately 10 days; for Plant response rating, Ryegrass, Italian: 0 to 100 scale (0 no effect, 100 complete control)
# How it was run: as §2
# kochia (Bassia scoparia) [8] = experiment: Test A postemergence, kochia; settings: Postemergence, 0 to 100 scale (0 no effect, 100 complete control); for Plant response rating, Kochia: 125 g ai/ha; for Kochia plant response rating: 500 g ai/ha, visual injury vs untreated controls after approx. 10 days
# How it was run: as §2
# [9] = system: pigweed (Amaranthus retroflexus); experiment: Test A postemergence, pigweed; settings: Postemergence, 0 to 100 scale (0 no effect, 100 complete control); for Plant response rating, Pigweed: 125 g ai/ha; for Pigweed plant response rating: 500 g ai/ha, visual injury vs untreated controls after approx. 10 days
# How it was run: as §2
# [10] = system: wheat (Triticum aestivum); experiment: Test A postemergence, wheat; settings: Postemergence, 0 to 100 scale (0 no effect, 100 complete control); for Plant response rating, Wheat: 125 g ai/ha; for Wheat plant response rating: 500 g ai/ha, visual injury vs untreated controls after approx. 10 days
# How it was run: as §1
# [11] = system: ragweed (common ragweed, Ambrosia artemisiifolia); experiment: Test A preemergence, ragweed; settings: Preemergence; for Ragweed plant response rating: visual injury on 0 to 100 scale (0 no effect, 100 complete control), approximately 10 days; for Plant response rating, Ragweed: 0 to 100 scale (0 no effect, 100 complete control)
# How it was run: as §2
# [12] = system: barnyardgrass (Echinochloa crus-galli); experiment: Test A preemergence, barnyardgrass; settings: Preemergence; for Barnyardgrass plant response rating: visual injury on 0 to 100 scale (0 no effect, 100 complete control), approximately 10 days; for Plant response rating, Barnyardgrass: 0 to 100 scale (0 no effect, 100 complete control)
# How it was run: as §2
# [13] = system: pigweed (Amaranthus retroflexus); experiment: Test A preemergence, pigweed; settings: for Pigweed plant response rating: visual injury on 0 to 100 scale (0 no effect, 100 complete control), approximately 10 days; for Plant response rating, Pigweed: 0 to 100 scale (0 no effect, 100 complete control)
# How it was run: as §1
# corn (Zea mays) = experiment: Test A postemergence, corn; settings: Postemergence, 0 to 100 scale (0 no effect, 100 complete control); for Plant response rating, Corn: 125 g ai/ha; for Corn plant response rating: 500 g ai/ha, visual injury vs untreated controls after approx. 10 days
# How it was run: as §2
# [14] = system: blackgrass (Alopecurus myosuroides); experiment: Test A postemergence, blackgrass; settings: Postemergence, 0 to 100 scale (0 no effect, 100 complete control); for Plant response rating, Blackgrass: 125 g ai/ha; for Blackgrass plant response rating: 500 g ai/ha, visual injury vs untreated controls after approx. 10 days
# How it was run: as §2
# kochia (Bassia scoparia) [15] = experiment: Test A preemergence, kochia; settings: Preemergence; for Kochia plant response rating: visual injury on 0 to 100 scale (0 no effect, 100 complete control), approximately 10 days; for Plant response rating, Kochia: 0 to 100 scale (0 no effect, 100 complete control)
# How it was run: as §2
# [16] = 125 g ai/ha, visual injury, approx. 10 days
structure (smiles),measurement,setting,value
Cc1cc(C)c(C2=NOC3CCCCC23)cc1NS(=O)(=O)C(F)(F)F (racemic) [Compound 125],"Plant response rating, Galium",[1]; visual injury approx. 10 days,90
same,Galium plant response rating,[1],90
same,"Foxtail, Giant plant response rating",[2]; 125 g ai/ha,100
same,"Plant response rating, Foxtail, Giant",[2]; 500 g ai/ha,100
same,"Plant response rating, Ragweed",[3]; visual injury approx. 10 days,60
same,Ragweed plant response rating,[3],80
same,"Plant response rating, Barnyardgrass",[4]; visual injury approx. 10 days,80
same,Barnyardgrass plant response rating,[4],90
same,"Plant response rating, Foxtail, Giant",[5]; visual injury approx. 10 days,20
same,"Foxtail, Giant plant response rating",[5],50
same,"Plant response rating, Ryegrass, Italian",[6]; visual injury approx. 10 days,0
same,"Ryegrass, Italian plant response rating",[6],70
same,"Ryegrass, Italian plant response rating",[7]; 125 g ai/ha,100
same,"Plant response rating, Ryegrass, Italian",[7]; 500 g ai/ha,100
same,"Plant response rating, Kochia",kochia (Bassia scoparia) [8]; visual injury approx. 10 days,70
same,Kochia plant response rating,kochia (Bassia scoparia) [8],80
same,"Plant response rating, Pigweed",[9]; visual injury approx. 10 days,60
same,Pigweed plant response rating,[9],90
same,"Plant response rating, Wheat",[10]; visual injury approx. 10 days,30
same,Wheat plant response rating,[10],70
same,Ragweed plant response rating,[11]; 125 g ai/ha,60
same,"Plant response rating, Ragweed",[11]; 500 g ai/ha,80
same,Barnyardgrass plant response rating,[12]; 125 g ai/ha,100
same,"Plant response rating, Barnyardgrass",[12]; 500 g ai/ha,100
same,Pigweed plant response rating,[13]; 125 g ai/ha,100
same,"Plant response rating, Pigweed",[13]; 500 g ai/ha,100
same,"Plant response rating, Corn",corn (Zea mays); visual injury approx. 10 days,0
same,Corn plant response rating,corn (Zea mays),60
same,"Plant response rating, Blackgrass",[14]; visual injury approx. 10 days,10
same,Blackgrass plant response rating,[14],60
same,Kochia plant response rating,kochia (Bassia scoparia) [15]; 125 g ai/ha,90
same,"Plant response rating, Kochia",kochia (Bassia scoparia) [15]; 500 g ai/ha,100
C#CCN(CC#C)C(=O)c1cc(N(S(=O)(=O)C(F)(F)F)S(=O)(=O)C(F)(F)F)c(C)cc1C [Compound 181],"Plant response rating, Galium",[1],60
same,Galium plant response rating,[1],70
same,"Foxtail, Giant plant response rating",[2]; 125 g ai/ha,100
same,"Plant response rating, Foxtail, Giant",[2]; 500 g ai/ha,100
same,"Plant response rating, Ragweed",[3],80
same,Ragweed plant response rating,[3],90
same,"Plant response rating, Barnyardgrass",[4],80
same,Barnyardgrass plant response rating,[4],90
same,"Plant response rating, Foxtail, Giant",[5],60
same,"Foxtail, Giant plant response rating",[5],90
same,"Plant response rating, Ryegrass, Italian",[6],70
same,"Ryegrass, Italian plant response rating",[6],90
same,"Ryegrass, Italian plant response rating",[7]; 125 g ai/ha,80
same,"Plant response rating, Ryegrass, Italian",[7]; 500 g ai/ha,90
same,"Plant response rating, Kochia",kochia (Bassia scoparia) [8],30
same,Kochia plant response rating,kochia (Bassia scoparia) [8],80
same,"Plant response rating, Pigweed",[9],40
same,Pigweed plant response rating,[9],80
same,"Plant response rating, Wheat",[10],50
same,Wheat plant response rating,[10],80
same,Ragweed plant response rating,[11]; 125 g ai/ha,50
same,"Plant response rating, Ragweed",[11]; 500 g ai/ha,90
same,Barnyardgrass plant response rating,[12]; 125 g ai/ha,90
same,"Plant response rating, Barnyardgrass",[12]; 500 g ai/ha,100
same,Pigweed plant response rating,[13]; 125 g ai/ha,40
same,"Plant response rating, Pigweed",[13]; 500 g ai/ha,80
same,"Plant response rating, Corn",corn (Zea mays),10
same,Corn plant response rating,corn (Zea mays),80
same,"Plant response rating, Blackgrass",[14],10
same,Blackgrass plant response rating,[14],30
same,Kochia plant response rating,kochia (Bassia scoparia) [15]; 125 g ai/ha,60
same,"Plant response rating, Kochia",kochia (Bassia scoparia) [15]; 500 g ai/ha,100
Cc1c(NS(=O)(=O)C(F)(F)F)cc(C(=O)N2CCCCC2)c(C)c1F [Compound 191],"Plant response rating, Galium",[1],70
same,Galium plant response rating,[1],90
same,"Plant response rating, Foxtail, Giant",[2]; [16],100
same,"Plant response rating, Foxtail, Giant",[2]; 500 g ai/ha,100
same,"Plant response rating, Ragweed",[3],20
same,Ragweed plant response rating,[3],60
same,"Plant response rating, Barnyardgrass",[4],0
same,Barnyardgrass plant response rating,[4],30
same,"Plant response rating, Foxtail, Giant",[5],0
same,"Foxtail, Giant plant response rating",[5],20
same,"Plant response rating, Ryegrass, Italian",[6],30
same,"Ryegrass, Italian plant response rating",[6],60
same,"Plant response rating, Ryegrass, Italian",[7]; [16],70
same,"Plant response rating, Ryegrass, Italian",[7]; 500 g ai/ha,100
same,"Plant response rating, Kochia",kochia (Bassia scoparia) [8],0
same,Kochia plant response rating,kochia (Bassia scoparia) [8],20
same,"Plant response rating, Pigweed",[9],20
same,Pigweed plant response rating,[9],70
same,"Plant response rating, Wheat",[10],30
same,Wheat plant response rating,[10],60
same,"Plant response rating, Ragweed",[11]; [16],60
same,"Plant response rating, Ragweed",[11]; 500 g ai/ha,100
same,"Plant response rating, Barnyardgrass",[12]; [16],100
same,"Plant response rating, Barnyardgrass",[12]; 500 g ai/ha,100
same,"Plant response rating, Pigweed",[13]; [16],100
same,"Plant response rating, Pigweed",[13]; 500 g ai/ha,100
same,"Plant response rating, Corn",corn (Zea mays),0
same,Corn plant response rating,corn (Zea mays),10
same,"Plant response rating, Blackgrass",[14],0
same,Blackgrass plant response rating,[14],0
same,"Plant response rating, Kochia",kochia (Bassia scoparia) [15]; [16],90
same,"Plant response rating, Kochia",kochia (Bassia scoparia) [15]; 500 g ai/ha,90
